Data: patent US20240197688A1, “COMBINATION MEDICINE FOR PREVENTING/TREATING DYSLIPIDEMIA OR CARDIOVASCULAR DISEASE” (KOWA COMPANY, LTD., priority 2021, published 2024)

Tests used:
Format in all cases: in vivo
[1] = test system: PPARα gene; test: Effect of combination use on expression level of PPARα gene in liver of rat (quantitative PCR); details: male Wistar rat, oral once a day for 2 weeks; compound A 0.3 mg/kg, compound B 30 mg/kg, alone or in combination; β-actin internal standard; actual value
From the text: Male rats (7-week-old, Wistar [Crlj: WI], Charles River Laboratories Japan, Inc.) were used for an experiment. Blood was collected from the jugular vein under satiation, and the rats were divided into four groups (N=6) based on TG and TC in the plasma and body weights. For two weeks from the next day of the grouping, each of a solvent (0.5% carboxymethyl cellulose aqueous solution: CMC), a compound A (pemafibrate) alone, a compound B (bempedoic acid) alone, and a combination of pemafibrate and bempedoic acid was orally administered once per day. After four hours from the final administration of the drug, blood was collected under isoflurane anesthesia to obtain the liver. RNA in the liver was extracted using ISOGEN (Nippon Gene Co., Ltd.), and cDNA was prepared using a high-capacity cDNA reverse transcription kit (Thermo Fischer Scientific). Quantitative PCR (polymerase chain reaction) was performed using the prepared cDNA, and the relative value of the expression level of the PPARα gene was calculated using β-actin gene as an internal standard. […]
The results were presented by an average value standard error. Comparison between the control group and each of the drug administration groups was performed by a multiple comparison test of Dunnett, and a risk rate of less than 5% was determined to have a significant difference.

[2] = test system: Wistar rat; test: Effect of combination use of compound A and compound B on TG index of rat; details: male Wistar rat, oral once a day for 2 weeks; compound A 0.3 mg/kg, compound B 30 mg/kg, alone or in combination; actual value
From the text: Male rats (7-week-old, Wistar [Crlj: WI], Charles River Laboratories Japan, Inc.) were used for an experiment. Blood was collected from the jugular vein under satiation, and the rats were divided into four groups (N=6) based on TG and TC in the plasma and body weights. For two weeks from the next day of the grouping, each of a solvent (0.5% carboxymethyl cellulose aqueous solution: CMC), a compound A (pemafibrate) alone, a compound B (bempedoic acid) alone, and a combination of pemafibrate and bempedoic acid was orally administered once per day. After four hours from the final administration of the drug, blood was collected under isoflurane anesthesia to obtain plasma. Parameters in the blood were measured using an automated analyzer (Labospect 003, Hitachi High-Technologies Corporation). A lipid content in the liver was measured using the method described in J. Biol. Chem. 226 (1), 497-509 (1957) (FOLCH method). A TG index (%) was expressed as a ratio of a product of a blood TG concentration and a TG content in the liver of a sample to that of Control. In the present Example, the compound A was prepared and used according to the method described in Patent Document 1. […] Comparison between the control group and each of the drug administration groups was performed by a multiple comparison test of Dunnett, and a risk rate of less than 5% was determined to have a significant difference.

[3] = test system: db/db mice; test: Effect of combination use on total cholesterol content in liver of db/db mice; details: male db/db mice, oral once a day for 2 weeks; compound A 0.3 mg/kg, compound B 10 mg/kg, alone or in combination
From the text: Male mice (8-week-old, db/db: BKS.Cg−+Leprdb/+Leprdb/Jcl, Lean: BKS. Cg−m+/m+/Jcl, CLEA Japan, Inc.) were used for an experiment. They were divided into four groups (N=8) based on body weights. For two weeks from the next day of the grouping, each of a solvent (0.5% methylcellulose aqueous solution: MC), a compound A (pemafibrate) alone, a compound B (bempedoic acid) alone, and a combination of pemafibrate and bempedoic acid was orally administered once per day. After four hours from the final administration of the drug, the liver was extracted under isoflurane anesthesia, and the TC concentration in the liver was measured using the FOLCH method described above. • Group 1: Control (Solvent Only) • Group 2: 0.3 mg/kg of Compound A • Group 3: 10 mg/kg of Compound B • Group 4: 0.3 mg/kg of Compound A and 10 mg/kg of Compound B The results were presented by an average value±standard error. Comparison between the control group and each of the drug administration groups was performed by a multiple comparison test of Tukey, and a risk rate of less than 5% was determined to have a significant difference.

Compound | expression level of PPARα gene (Ppara) in the liver relative to Control [1] [times] | TG index (ratio of product of blood TG concentration and liver TG content to that of Control) [2] [%] | total cholesterol content in the liver compared to Control [3] [%]
CC(C)(CCCCCC(O)CCCCCC(C)(C)C(=O)O)C(=O)O [compound B, 8-hydroxy-2,2,14,14-tetramethylpentadecanedioic acid] | 1.22 | 60.6 | 87.0
CC[C@@H](Oc1cccc(CN(CCCOc2ccc(OC)cc2)c2nc3ccccc3o2)c1)C(=O)O [compound A, (R)-2-[3-[[N-(benzoxazole-2-yl)-N-3-(4-methoxyphenoxy)propyl]aminomethyl]phenoxy]butyric acid] | 1.17 | 65.4 | 86.2
